Target: phospho-VEGFR-2 (Tyr951) (Mus musculus, UniProt P35918)
Assay: Immunohistochemistry of EAC solid tumor sections, phospho-VEGFR-2
Details: oral treatment of EAC-bearing mice

phospho-VEGFR-2 (Tyr951), sequence (P35918 20-1345): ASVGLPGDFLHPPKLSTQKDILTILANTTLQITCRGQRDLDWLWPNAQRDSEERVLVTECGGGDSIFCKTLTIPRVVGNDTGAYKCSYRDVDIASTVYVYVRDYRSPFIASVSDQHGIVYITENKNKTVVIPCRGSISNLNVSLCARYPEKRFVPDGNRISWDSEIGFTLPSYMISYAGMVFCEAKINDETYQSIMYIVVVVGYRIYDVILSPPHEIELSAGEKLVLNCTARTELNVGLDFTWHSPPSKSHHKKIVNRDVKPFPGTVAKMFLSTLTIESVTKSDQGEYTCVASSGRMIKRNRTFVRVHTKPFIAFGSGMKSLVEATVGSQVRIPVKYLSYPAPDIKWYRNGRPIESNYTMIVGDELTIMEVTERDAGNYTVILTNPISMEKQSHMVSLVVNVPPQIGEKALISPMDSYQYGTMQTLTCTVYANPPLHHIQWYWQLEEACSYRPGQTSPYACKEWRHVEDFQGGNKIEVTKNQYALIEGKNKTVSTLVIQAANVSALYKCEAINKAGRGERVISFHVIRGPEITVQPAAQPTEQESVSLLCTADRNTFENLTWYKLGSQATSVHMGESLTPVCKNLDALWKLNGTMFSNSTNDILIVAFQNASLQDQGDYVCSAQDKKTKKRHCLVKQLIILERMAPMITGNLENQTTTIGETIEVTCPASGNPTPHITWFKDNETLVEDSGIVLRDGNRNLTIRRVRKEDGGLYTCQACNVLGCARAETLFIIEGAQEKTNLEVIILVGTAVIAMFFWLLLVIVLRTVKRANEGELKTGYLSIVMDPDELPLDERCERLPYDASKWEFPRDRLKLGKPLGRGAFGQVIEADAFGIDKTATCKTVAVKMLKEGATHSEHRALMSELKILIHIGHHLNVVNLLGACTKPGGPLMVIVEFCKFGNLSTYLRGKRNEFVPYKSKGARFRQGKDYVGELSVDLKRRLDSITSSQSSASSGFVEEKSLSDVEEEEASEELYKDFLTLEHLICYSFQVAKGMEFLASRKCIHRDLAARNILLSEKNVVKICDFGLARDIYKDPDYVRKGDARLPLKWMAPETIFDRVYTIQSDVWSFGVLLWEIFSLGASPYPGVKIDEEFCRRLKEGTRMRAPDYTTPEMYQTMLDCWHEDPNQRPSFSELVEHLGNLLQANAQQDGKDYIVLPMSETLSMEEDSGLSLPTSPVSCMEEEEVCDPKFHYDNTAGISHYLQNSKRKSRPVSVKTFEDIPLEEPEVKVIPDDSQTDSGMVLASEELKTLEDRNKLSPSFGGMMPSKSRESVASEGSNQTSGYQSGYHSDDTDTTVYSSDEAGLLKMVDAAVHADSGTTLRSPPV

**Q.** Which “VEGFR-2 phosphorylation in EAC solid tumor” value does the source give for `Cc1cccc(NC(=O)Nc2ccc(Oc3ncnc4sc5c(c34)CCCC5)cc2)c1` [Compound 21b] here?
**A.** decreased VEGFR-2 phosphoryaltion
